The numbers were not newly measured in US20080175905A1, “ESTROGEN/SERM AND ESTROGEN/PROGESTIN BI-LAYER TABLETS” (Wyeth, priority 2006, published 2008), which cites them from elsewhere.

For data set [1], the system named is uterine response. As to conditions: preclinical models of uterine stimulation.
Data set [2] has as its system ovariectomized rat model of osteopenia.
Data set [3] concerns MCF-7 cell line (human breast cancer cell line). As to conditions: MCF-7 human breast cancer cell line.

Regarding `Cc1c(-c2ccc(O)cc2)n(Cc2ccc(OCCN3CCCCCC3)cc2)c2ccc(O)cc12` [bazedoxifene acetate, 1-[4-(2-azepan-1-yl-ethoxy)-benzyl]-2-(4-hydroxy-phenyl)-3-methyl-1H-indol-5-ol acetic acid], in data set [1], the “stimulation of uterine response” value is “little or no stimulation of uterine response”. Further, in data set [2], the preventing bone loss entry is reported as “estrogen agonist-like effect” and the reducing cholesterol result was “estrogen agonist-like effect”. Further, the “estrogen antagonist behaviour in MCF-7 cell line” value in data set [3] is on record as “behaves as an estrogen antagonist”.
